According to US12240828B2, “Heteroaromatic compounds as vanin inhibitors” (Boehringer Ingelheim International GmbH, priority 2018, dated 2025):

How the values were obtained:
[1] = target: T1, FLAG-tagged Vanin-1 (AA 22-493, T26I) (Homo sapiens, UniProt O95497, T26I); assay: Vanin-1 enzymatic assay; format: biochemical; details: 0.1 nM Vanin-1, 3 μM D-pantethine, pantothenic acid formation by RapidFire MS; geometric mean if multiple measurements; read-out: VNN-1 IC50
T1 construct: FLAG-tagged Vanin-1 (AA 22-493, T26I, produced internally); FLAG; made in house
T1 sequence (O95497 22-493 T26I): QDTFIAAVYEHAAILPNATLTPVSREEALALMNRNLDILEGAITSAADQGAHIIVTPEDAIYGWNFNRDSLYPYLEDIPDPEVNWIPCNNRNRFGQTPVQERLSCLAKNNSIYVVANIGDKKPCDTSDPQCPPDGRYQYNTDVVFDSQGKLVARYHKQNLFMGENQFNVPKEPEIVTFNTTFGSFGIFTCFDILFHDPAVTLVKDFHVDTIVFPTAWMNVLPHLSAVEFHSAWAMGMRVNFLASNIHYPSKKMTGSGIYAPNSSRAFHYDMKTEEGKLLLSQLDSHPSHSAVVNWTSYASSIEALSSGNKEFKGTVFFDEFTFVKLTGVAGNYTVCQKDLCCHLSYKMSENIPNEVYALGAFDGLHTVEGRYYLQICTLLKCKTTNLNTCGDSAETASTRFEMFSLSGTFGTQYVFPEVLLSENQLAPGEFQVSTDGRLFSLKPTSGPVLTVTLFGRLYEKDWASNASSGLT
Experimental: The test compounds are dissolved in 100% DMSO at a concentration of 10 mM and in a first step diluted in DMSO to a concentration of 5 mM, followed by serial dilution steps in 100% DMSO. Dilution factor and number of dilution steps may vary according to needs. Typically 8 different concentrations by 1:5 dilutions are prepared, a further intermediate dilutions of the substances is carried out with assay buffer resulting in 1% final DMSO concentration in the assay.
0.1 nM of FLAG-tagged Vanin-1 (AA 22-493, T26I, produced internally) and test compounds are incubated at room temperature for 20 minutes in assay buffer (1 mM DTT, 0.0025% Brij-35, 50 mM HEPES, pH7.5). D-Pantethine (Sigma, Cat #P2125-5G) in assay buffer is added (final concentration 3 μM) and incubated for additional 30 minutes at room temperature. Total assay volume typically is 40 μl but might be adjusted according to needs. Reaction is stopped by adding equal volume of stop solution as the reaction mixture to reach 100 nM HD-pantothenic acid (as an internal standard) and 1% TFA. Assay plates are centrifuged for 2 minutes and the formation of pantothenic acid is detected by RapidFire Mass Spectrometry (mobile phase A: 0.1% formic acid and 0.01% trifluoroacetic acid in water; mobile phase B: 47.5% acetonitrile, 47.5% methanol, 0.1% formic acid and 0.01% trifluoroacetic acid in water) using a C18, 12 μL cartridge (Agilent Cat #G9205A).
The values given in Table I result from measurements of one or more samples. In case of multiple measurements the geometric mean values are given.

Pantetheinase (vanin) = assay: Human Whole Blood assay; format: cell-based; details: pantethine substrate, pantothenic acid formation by RapidFire MS, read-out: HWB IC50
Experimental: Human Whole Blood assay: Pantetheinase (vanin) converts panteheine into pantothenic acid and cysteamine. Accordingly, in the described protocol vanin activity is quantified by formation of pantothenic acid after pantetheine supplementation via pantethine. The assay is applicable to identify vanin inhibitors. Compound stocks are dissolved in DMSO at 10 mM. Further dilutions are performed in RPMI 1640 medium (Gibco, #A-10491-01) and final concentrations in the assay are 0.032 nM-500 nM.
Human blood is drawn into a blood bag (1% heparin, 50 I.E./mL). Blood is aliquoted into cavities of 96-deep-well plates at 290 μL and mixed with 10 μL compound solution or vehicle (30 sec at 1400 rpm on a shaker). Equilibration follows at room temperature, 250 rpm and for 30 min. The assay is starts by adding 10 μL of substrate solution (20 μM pantethine in 1 mM DTT, 0.0025% Brij-35, 50 mM HEPES, pH7.5) to each well, except for some blank wells which receive […] substrate buffer (1 mM DTT, 0.0025% Brij-35, 50 mM HEPES, pH7.5) only. Samples are thoroughly shaken (30 sec, 1400 rpm) and reaction is allowed to take place at room temperature, 250 rpm and for 5 min. The reaction is stopped by addition of a vanin tool inhibitor in excess (BI-1 total conc. 10 μM). Centrifugation of the plate follows at 4° C., 665 G for 10 min. Then the blood plasma samples (100 μL) are transferred into another 96-deep-well plate and proteins are precipitated (5 min on ice) by adding 100 μL of ice cold precipitation solution (1 μM labelled pantothenic acid (di-β-alanine-13C6,15N2 calcium salt, Sigma, #705837) in acetonitrile). Afterwards the plate is centrifuged (4° C., 3220 G, 10 min) and supernatants (50 μL) are collected into another 96-deep-well plate and mixed (10 sec, 1400 rpm) with 150 μL ice cold formic acid (0.1%, Carl Roth GmbH+Co.KG, #CP03.1). The formation of pantothenic acid is detected by RapidFire Mass Spectrometry. A TripleQuad 6500+ (ABSciex, Germany) is equipped with an LC-1290 system, a RapidFire autosampler (Agilent, Germany) and a C18 cartridge Type C 12 μL (Agilent Cat #G9526-80000). Mobile phase A is consisting of 0.09% formic acid and 0.01% trifluoroacetic acid in water and mobile phase B of 0.09% formic acid and 0.01% trifluoroacetic acid in acetonitrile/methanol/water=47.5/47.5/5.

Structure (SMILES) | IC50 [1] [nM] | IC50 (Pantetheinase (vanin)) [nM]
CC(=O)N(C)[C@H]1CCN(C(=O)c2ccc(NC(C)(C)c3ccc(Cl)cc3)nc2)C1 [Example 4.7] | 0.22 | 3.68
CC(=O)N(C)[C@H]1CCN(C(=O)c2ccc(NCc3cccnc3)nc2)C1 [Example 7.1, N-Methyl-N-[(3S)-1-(6-{[(pyridin-3-yl)methyl]amino}pyridine-3-carbonyl)pyrrolidin-3-yl]acetamide] | 0.13 | 1.78
CN(C(=O)C1CC(F)(F)C1)[C@H]1CCN(C(=O)c2ccc(NC(C)(C)c3cccnc3)nc2)C1 [Example 8.2] | 0.08 | 1
CC1(C#N)CCN(C(=O)c2ccc(NC(C)(C)c3cccnc3)nc2)C1 (stereo not shown) [Example 8.3] | 0.08 | 0.85
CN(C(=O)C1CC(F)(F)C1)[C@H]1CCN(C(=O)c2ccc(NCc3cccnc3)nc2)C1 [Example 8.4] | 0.13 | 1.16
CN(c1ncccn1)[C@H]1CCN(C(=O)c2ccc(NCc3cccnc3)nc2)C1 [Example 8.5] | 0.14 | 16.3
CN(C(=O)C1CC1)[C@H]1CCN(C(=O)c2ccc(NC3(c4cncnc4)CC3)nc2)C1 [Example 8.6] | 0.15 | 1.84
CC(=O)N(C)[C@H]1CCN(C(=O)c2ccc(NC(C)(C)c3cccnc3)nc2)C1 [Example 8.7] | 0.16 | 3.29
O=C(c1ccc(NCc2ccc(Cl)cc2)nc1)N1CC[C@H](N2CCCC2=O)C1 [Example 8.9] | 0.32 | 4.89
CN(C(=O)C1(C)CCC1)[C@H]1CCN(C(=O)c2ccc(NC3(c4cncnc4)CC3)nc2)C1 [Example 8.10] | 0.33 | 2.16
O=C(c1ccc(NCc2cccnc2)nc1)N1CCC2(CCOCC2)C1 [Example 8.11] | 0.34 | 3.3
O=C(c1ccc(NCc2ccc(Cl)cc2)nc1)N1CC[C@H](N2CCOC2=O)C1 [Example 8.12] | 0.41 | 10.4
CC(=O)N(C)[C@H]1CCN(C(=O)c2ccc(N[C@@H](C)c3ccc(C(F)(F)F)nc3)nc2)C1 [Example 9.1, N-Methyl-N-[(3S)-1-(6-{[(1S)-1-[6-(trifluoromethyl)pyridin-3-yl]ethyl]amino}pyridine-3-carbonyl)pyrrolidin-3-yl]acetamide] | 0.39 | 2.78
CC(=O)N(C)[C@H]1CCN(C(=O)c2ccc(N[C@@H](C)c3cccc(C(F)(F)F)c3)nc2)C1 [Example 9.3] | 0.17 | 4.28
CC(=O)N(C)[C@H]1CCN(C(=O)c2ccc(N[C@@H](C)c3ccc(Cl)cc3)nc2)C1 [Example 9.4] | 0.27 | 4.23
CC(=O)N(C)[C@H]1CCN(C(=O)c2ccc(N[C@@H](C)c3ccc(F)cc3)nc2)C1 [Example 9.5] | 0.4 | 2.19
CC(=O)N(C)[C@H]1CCN(C(=O)c2ccc(N[C@@H](C)c3ccc(F)cc3F)nc2)C1 [Example 9.6] | 0.42 | 5.03
